In ChEMBL document CHEMBL1201862, “PubChem BioAssay data set” (2004):
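Results reflect a 48-hour exposure of cells in 96-well plates to compound at five concentrations. The concentration for 50% growth inhibition is given as GI50.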 The source made the active and inactive calls. No stated cut-off is given here; in the data, active = GI50 up to about 1.1 µM and inactive = higher.

Columns and labels:
Experiment in all cases: growth of human tumour cells (NCI), 48 h
NCI-H226 = test system: NCI-H226
HOP-18 = test system: HOP-18
NCI-H522 = test system: NCI-H522
SK-MEL-28 = test system: SK-MEL-28
Malme-3M = test system: Malme-3M
SK-OV-3 = test system: SK-OV-3
HCT-15 = test system: HCT-15
U-251 = test system: U-251
SNB-19 = test system: SNB-19
A549 = test system: A549
DMS-273 = test system: DMS-273
HT-29 = test system: HT-29
SF-268 = test system: SF-268
SNB-78 = test system: SNB-78
OVCAR-8 = test system: OVCAR-8
DMS-114 = test system: DMS-114
SR = test system: SR
K562 = test system: K562
ACHN = test system: ACHN
KM-20L2 = test system: KM-20L2
CCRF-CEM = test system: CCRF-CEM
M19-MEL = test system: M19-MEL
COLO 205 = test system: COLO 205
XF498 = test system: XF498
TK-10 = test system: TK-10
RXF 393 = test system: RXF 393
UACC-257 = test system: UACC-257
NCI-H23 = test system: NCI-H23
LOX IMVI = test system: LOX IMVI
SK-MEL-5 = test system: SK-MEL-5
SK-MEL-2 = test system: SK-MEL-2
HCT-116 = test system: HCT-116
OVCAR-4 = test system: OVCAR-4
SF-295 = test system: SF-295
EKVX = test system: EKVX
UO-31 = test system: UO-31
HOP-62 = test system: HOP-62
NCI-H460 = test system: NCI-H460
SW-620 = test system: SW-620
UACC-62 = test system: UACC-62
LXFL 529 = test system: LXFL 529
M14 = test system: M14
KM12 = test system: KM12
RPMI-8226 = test system: RPMI-8226
HL-60 = test system: HL-60
SNB-75 = test system: SNB-75
MOLT-4 = test system: MOLT-4
SN12C = test system: SN12C
786-0 = test system: 786-0
SF-539 = test system: SF-539
HOP-92 = test system: HOP-92
OVCAR-5 = test system: OVCAR-5
CAKI-1 = test system: CAKI-1
IGROV-1 = test system: IGROV-1
DLD-1 = test system: DLD-1
OVCAR-3 = test system: OVCAR-3
HCC 2998 = test system: HCC 2998
A498 = test system: A498
MCF7 = test system: MCF7
NCI/ADR-RES = test system: NCI/ADR-RES

`O[C@]12c3ccccc3C1CCCCC2N1CCOCC1` (stereo not given in full) was tested, and the GI50 (NCI-H226) was > 100 µM (inactive), the GI50 (HOP-18) was > 100 µM (inactive) and the GI50 (NCI-H522) was > 100 µM (inactive). For the same molecule, the GI50 (SK-MEL-28) was > 100 µM (inactive), the GI50 (Malme-3M) was > 100 µM (inactive) and the GI50 (SK-OV-3) was > 100 µM (inactive). For the same molecule, the GI50 (HCT-15) was over 100 µM, the GI50 (U-251) was > 100 µM (inactive) and the GI50 (SNB-19) was > 100 µM (inactive). The GI50 (A549) was > 100 µM (inactive), the GI50 (DMS-273) was > 100 µM (inactive) and the GI50 (HT-29) was > 100 µM (inactive). The GI50 (SF-268) was > 100 µM (inactive), the GI50 (SNB-78) was > 100 µM (inactive) and the GI50 (OVCAR-8) was > 100 µM (inactive). For the same molecule, the GI50 (DMS-114) was > 100 µM (inactive), the GI50 (SR) was > 100 µM (inactive) and the GI50 (K562) was > 100 µM (inactive). For the same molecule, the GI50 (ACHN) was > 100 µM (inactive), the GI50 (KM-20L2) was > 100 µM (inactive) and the GI50 (CCRF-CEM) was > 100 µM (inactive). The GI50 (M19-MEL) was > 100 µM (inactive), the GI50 (COLO 205) was > 100 µM (inactive) and the GI50 (XF498) was > 100 µM (inactive). For the same molecule, the GI50 (TK-10) was > 100 µM (inactive), the GI50 (RXF 393) was > 100 µM (inactive) and the GI50 (UACC-257) was > 100 µM (inactive). For the same molecule, the GI50 (NCI-H23) was > 100 µM (inactive), the GI50 (LOX IMVI) was > 100 µM (inactive) and the GI50 (SK-MEL-5) was > 100 µM (inactive). For the same molecule, the GI50 (SK-MEL-2) was > 100 µM (inactive), the GI50 (HCT-116) was > 100 µM (inactive) and the GI50 (OVCAR-4) was > 100 µM (inactive). The GI50 (SF-295) was > 100 µM (inactive), the GI50 (EKVX) was > 100 µM (inactive) and the GI50 (UO-31) was > 100 µM (inactive). The GI50 (HOP-62) was > 100 µM (inactive), the GI50 (NCI-H460) was > 100 µM (inactive) and the GI50 (SW-620) was > 100 µM (inactive). The GI50 (UACC-62) was > 100 µM (inactive), the GI50 (LXFL 529) was > 100 µM (inactive) and the GI50 (M14) was > 100 µM (inactive). For the same molecule, the GI50 (KM12) was > 100 µM (inactive), the GI50 (RPMI-8226) was > 100 µM (inactive) and the GI50 (HL-60) was > 100 µM (inactive). The GI50 (SNB-75) was > 100 µM (inactive), the GI50 (MOLT-4) was > 10 µM (inactive) and the GI50 (SN12C) was > 100 µM (inactive). The GI50 (786-0) was > 100 µM (inactive).
With `CCCc1c(C(=O)OCC)[nH]c(-c2ccc(-c3[nH]c(C(=O)OCC)c(CCC)c3C(=O)OCC)s2)c1C(=O)OCC` the GI50 (NCI-H226) was 72.1 µM (inactive), the GI50 (HOP-18) was > 100 µM (inactive) and the GI50 (NCI-H522) was 32.6 µM (inactive). The GI50 (SK-MEL-28) was 95.5 µM (inactive), the GI50 (Malme-3M) was 39.5 µM (inactive) and the GI50 (SK-OV-3) was 27.1 µM (inactive). For the same molecule, the GI50 (HCT-15) was 92.5 µM, the GI50 (U-251) was 36.1 µM (inactive) and the GI50 (SF-539) was 41 µM (inactive). For the same molecule, the GI50 (HOP-92) was 25.2 µM (inactive), the GI50 (SNB-19) was 78.3 µM (inactive) and the GI50 (A549) was 52.4 µM (inactive). The GI50 (DMS-273) was 30.7 µM (inactive), the GI50 (HT-29) was 38.8 µM (inactive) and the GI50 (SF-268) was 26.9 µM (inactive). For the same molecule, the GI50 (SNB-78) was > 100 µM (inactive), the GI50 (OVCAR-5) was 86.3 µM (inactive) and the GI50 (OVCAR-8) was 48 µM (inactive). For the same molecule, the GI50 (CAKI-1) was 39.7 µM (inactive), the GI50 (DMS-114) was 38.1 µM (inactive) and the GI50 (SR) was 7.26 µM (inactive). The GI50 (K562) was 79.4 µM (inactive), the GI50 (ACHN) was 34.8 µM (inactive) and the GI50 (KM-20L2) was 72.1 µM (inactive). The GI50 (IGROV-1) was 58.2 µM (inactive), the GI50 (CCRF-CEM) was > 100 µM (inactive) and the GI50 (M19-MEL) was 52.8 µM (inactive). For the same molecule, the GI50 (COLO 205) was > 100 µM (inactive), the GI50 (XF498) was 27.3 µM (inactive) and the GI50 (TK-10) was 50.1 µM (inactive). The GI50 (RXF 393) was 5.38 µM (inactive), the GI50 (UACC-257) was 66.1 µM (inactive) and the GI50 (NCI-H23) was 28.2 µM (inactive). The GI50 (LOX IMVI) was 18.1 µM (inactive), the GI50 (SK-MEL-5) was 35.2 µM (inactive) and the GI50 (SK-MEL-2) was 15.7 µM (inactive). For the same molecule, the GI50 (HCT-116) was 33.3 µM (inactive), the GI50 (OVCAR-4) was 18.4 µM (inactive) and the GI50 (SF-295) was 27.9 µM (inactive). The GI50 (EKVX) was 62.4 µM (inactive), the GI50 (UO-31) was 8.97 µM (inactive) and the GI50 (DLD-1) was > 100 µM (inactive). For the same molecule, the GI50 (OVCAR-3) was 31.6 µM (inactive), the GI50 (NCI-H460) was 37 µM (inactive) and the GI50 (SW-620) was > 100 µM (inactive). The GI50 (UACC-62) was 32.1 µM (inactive), the GI50 (HCC 2998) was 20.6 µM (inactive) and the GI50 (LXFL 529) was 33 µM (inactive). The GI50 (M14) was 49.8 µM (inactive), the GI50 (KM12) was 22.1 µM (inactive) and the GI50 (RPMI-8226) was 87.7 µM (inactive). For the same molecule, the GI50 (HL-60) was 46 µM (inactive), the GI50 (SNB-75) was 11.8 µM (inactive) and the GI50 (MOLT-4) was 65 µM (inactive). For the same molecule, the GI50 (SN12C) was > 100 µM (inactive), the GI50 (A498) was 43.9 µM (inactive) and the GI50 (786-0) was 21.8 µM (inactive).
In the case of `CN1CCc2[nH]c3ccccc3c2C1`, the GI50 (NCI-H226) is reported as > 100 µM (inactive), the GI50 (HOP-18) is reported as > 100 µM (inactive) and the GI50 (NCI-H522) is reported as > 100 µM (inactive). The GI50 (SK-MEL-28) was > 100 µM (inactive), the GI50 (Malme-3M) was > 100 µM (inactive) and the GI50 (SK-OV-3) was > 100 µM (inactive). The GI50 (HCT-15) was over 100 µM, the GI50 (U-251) was > 100 µM (inactive) and the GI50 (SF-539) was > 100 µM (inactive). The GI50 (HOP-92) was > 100 µM (inactive), the GI50 (SNB-19) was > 100 µM (inactive) and the GI50 (A549) was > 100 µM (inactive). The GI50 (DMS-273) was > 100 µM (inactive), the GI50 (HT-29) was > 100 µM (inactive) and the GI50 (SF-268) was > 100 µM (inactive). The GI50 (SNB-78) was > 100 µM (inactive), the GI50 (OVCAR-5) was > 100 µM (inactive) and the GI50 (OVCAR-8) was > 100 µM (inactive). For the same molecule, the GI50 (CAKI-1) was > 100 µM (inactive), the GI50 (DMS-114) was > 100 µM (inactive) and the GI50 (K562) was > 100 µM (inactive). The GI50 (KM-20L2) was > 100 µM (inactive), the GI50 (IGROV-1) was > 100 µM (inactive) and the GI50 (CCRF-CEM) was > 100 µM (inactive). For the same molecule, the GI50 (M19-MEL) was > 100 µM (inactive), the GI50 (COLO 205) was > 100 µM (inactive) and the GI50 (XF498) was > 100 µM (inactive). The GI50 (RXF 393) was > 100 µM (inactive), the GI50 (UACC-257) was > 100 µM (inactive) and the GI50 (NCI-H23) was > 100 µM (inactive). The GI50 (LOX IMVI) was > 100 µM (inactive), the GI50 (SK-MEL-5) was > 100 µM (inactive) and the GI50 (SK-MEL-2) was > 100 µM (inactive). The GI50 (HCT-116) was > 100 µM (inactive), the GI50 (OVCAR-4) was > 100 µM (inactive) and the GI50 (SF-295) was > 100 µM (inactive). The GI50 (EKVX) was > 100 µM (inactive), the GI50 (MCF7) was > 100 µM (inactive) and the GI50 (UO-31) was > 100 µM (inactive). The GI50 (DLD-1) was > 100 µM (inactive), the GI50 (OVCAR-3) was > 100 µM (inactive) and the GI50 (HOP-62) was > 100 µM (inactive). For the same molecule, the GI50 (NCI-H460) was > 100 µM (inactive), the GI50 (SW-620) was > 100 µM (inactive) and the GI50 (UACC-62) was > 100 µM (inactive). For the same molecule, the GI50 (HCC 2998) was > 100 µM (inactive), the GI50 (KM12) was > 100 µM (inactive) and the GI50 (RPMI-8226) was > 100 µM (inactive). The GI50 (HL-60) was 87.9 µM (inactive), the GI50 (SNB-75) was > 100 µM (inactive) and the GI50 (MOLT-4) was > 100 µM (inactive). For the same molecule, the GI50 (NCI/ADR-RES) was > 100 µM (inactive), the GI50 (SN12C) was > 100 µM (inactive) and the GI50 (A498) was > 100 µM (inactive).
